Assays:
Assay in all cases: UDP-Glo UDP release assay
Type in all cases: biochemical
GALNT1 = biological target: T1, GALNT1 (Homo sapiens, UniProt Q10472); conditions: 50 μM UDP sugar, 50 μM MUC5AC peptide, 10 nM enzyme, 25 mM Tris-HCl pH 7.4, 10 mM MnCl2, room temperature
T1 construct: truncated, residues 41-559, plasmid hT1-pKN55, secreted from Pichia pastoris SMD1163, Ni-NTA purified
T1 sequence (Q10472 41-559): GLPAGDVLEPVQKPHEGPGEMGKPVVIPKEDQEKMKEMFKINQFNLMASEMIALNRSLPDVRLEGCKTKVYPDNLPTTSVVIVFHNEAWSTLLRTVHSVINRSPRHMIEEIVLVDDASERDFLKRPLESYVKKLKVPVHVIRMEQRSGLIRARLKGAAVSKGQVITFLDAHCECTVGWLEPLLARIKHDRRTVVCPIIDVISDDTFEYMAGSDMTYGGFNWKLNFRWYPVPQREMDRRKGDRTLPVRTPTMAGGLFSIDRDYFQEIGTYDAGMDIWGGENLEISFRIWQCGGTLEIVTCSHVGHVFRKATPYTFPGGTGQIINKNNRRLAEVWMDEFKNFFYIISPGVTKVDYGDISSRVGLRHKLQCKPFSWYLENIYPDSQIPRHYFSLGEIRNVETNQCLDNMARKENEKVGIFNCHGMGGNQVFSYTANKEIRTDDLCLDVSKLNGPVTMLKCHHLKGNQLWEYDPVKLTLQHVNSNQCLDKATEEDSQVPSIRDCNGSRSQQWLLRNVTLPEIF

GALNT2 = biological target: T2, GALNT2 (Homo sapiens, UniProt Q10471); conditions: 50 μM UDP sugar, 50 μM MUC5AC peptide, 150 nM enzyme, 25 mM Tris-HCl pH 7.4, 10 mM MnCl2, room temperature
T2 construct: truncated, residues 75-572 as printed, hT2-pKN55 vector, secreted from Pichia pastoris SMD1163, Ni-NTA purified

ncOGT (OGT) = biological target: T3, ncOGT (OGT) (Homo sapiens, UniProt O15294); conditions: 40 μM UDP sugar, 125 μM CKII3K peptide, 300 nM enzyme, 25 mM Tris-HCl pH 7.4, 150 mM NaCl, room temperature
T3 sequence (O15294 2-1046): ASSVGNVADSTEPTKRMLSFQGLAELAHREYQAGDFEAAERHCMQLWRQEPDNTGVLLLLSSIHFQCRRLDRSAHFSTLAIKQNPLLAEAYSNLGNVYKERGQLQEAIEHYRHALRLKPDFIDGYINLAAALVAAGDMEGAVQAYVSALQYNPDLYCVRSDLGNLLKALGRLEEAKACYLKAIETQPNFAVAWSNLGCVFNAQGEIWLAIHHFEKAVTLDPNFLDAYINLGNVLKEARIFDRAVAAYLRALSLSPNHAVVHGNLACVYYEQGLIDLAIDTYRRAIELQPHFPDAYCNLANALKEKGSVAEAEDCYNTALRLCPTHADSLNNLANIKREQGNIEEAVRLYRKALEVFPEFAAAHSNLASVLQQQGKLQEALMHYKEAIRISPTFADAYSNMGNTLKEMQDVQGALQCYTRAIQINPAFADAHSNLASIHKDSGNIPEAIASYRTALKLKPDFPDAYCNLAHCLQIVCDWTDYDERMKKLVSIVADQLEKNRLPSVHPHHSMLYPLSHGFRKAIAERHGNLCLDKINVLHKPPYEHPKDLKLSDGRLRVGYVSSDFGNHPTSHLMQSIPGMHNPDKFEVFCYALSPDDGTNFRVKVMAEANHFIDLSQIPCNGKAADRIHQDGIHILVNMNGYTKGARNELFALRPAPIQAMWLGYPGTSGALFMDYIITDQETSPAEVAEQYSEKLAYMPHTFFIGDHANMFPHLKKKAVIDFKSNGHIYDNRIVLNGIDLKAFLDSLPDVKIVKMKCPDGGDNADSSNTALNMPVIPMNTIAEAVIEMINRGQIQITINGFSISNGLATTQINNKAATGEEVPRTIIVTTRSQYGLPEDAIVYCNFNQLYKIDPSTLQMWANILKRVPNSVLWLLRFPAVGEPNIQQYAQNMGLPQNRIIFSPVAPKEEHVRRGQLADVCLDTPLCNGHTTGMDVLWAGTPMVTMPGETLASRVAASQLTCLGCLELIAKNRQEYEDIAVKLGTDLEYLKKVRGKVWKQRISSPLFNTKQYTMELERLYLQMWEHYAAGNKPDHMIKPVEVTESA

T2 sequence (Q10471 75-571): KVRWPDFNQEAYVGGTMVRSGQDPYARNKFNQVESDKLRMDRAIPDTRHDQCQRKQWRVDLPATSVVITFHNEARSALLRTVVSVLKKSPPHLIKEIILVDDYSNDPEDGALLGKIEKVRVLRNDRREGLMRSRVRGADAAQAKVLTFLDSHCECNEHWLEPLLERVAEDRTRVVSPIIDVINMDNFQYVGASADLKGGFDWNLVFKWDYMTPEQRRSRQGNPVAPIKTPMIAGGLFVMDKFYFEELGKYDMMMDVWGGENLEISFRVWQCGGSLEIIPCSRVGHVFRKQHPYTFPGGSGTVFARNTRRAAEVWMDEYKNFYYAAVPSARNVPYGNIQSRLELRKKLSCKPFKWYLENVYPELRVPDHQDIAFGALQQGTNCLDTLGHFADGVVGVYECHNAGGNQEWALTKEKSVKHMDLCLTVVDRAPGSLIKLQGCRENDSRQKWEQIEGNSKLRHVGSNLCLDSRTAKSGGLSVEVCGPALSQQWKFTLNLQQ

| Compound | UDP-Glo UDP release assay (GALNT1) | UDP-Glo UDP release assay (GALNT2) | UDP-Glo UDP release assay (ncOGT (OGT)) |
| --- | --- | --- | --- |
| CC(=O)N[C@H]1[C@@H](OP(=O)(O)OP(=O)(O)OC[C@H]2O[C@@H](n3ccc(=O)[nH]c3=O)[C@H](O)[C@@H]2O)O[C@H](CO)[C@H](O)[C@@H]1O [UDP-GalNAc] | despite clear turnover of the native UDP-GalNAc substrate | despite clear turnover of the native UDP-GalNAc substrate |  |
| CC(=O)N[C@H]1[C@@H](OP(=O)(O)OP(=O)(O)OC[C@H]2O[C@@H](n3ccc(=O)[nH]c3=O)[C@H](O)[C@@H]2O)O[C@H](CO)[C@@H](O)[C@@H]1O [UDP-GlcNAc] |  |  | OGT accepted UDP-GalNAc but less efficiently than UDP-GlcNAc |

— article PMC8787749, “4-Deoxy-4-fluoro-GalNAz (4FGalNAz) Is a Metabolic Chemical Reporter of O-GlcNAc Modifications, Highlighting the Notable Substrate Flexibility of O-GlcNAc Transferase” (ACS Chemical Biology, 2021)
